Compound in the assay “Carfilzomib + Olaparib”: CC(C)C[C@H](NC(=O)[C@H](CCc1ccccc1)NC(=O)CN1CCOCC1)C(=O)N[C@@H](Cc1ccccc1)C(=O)N[C@@H](CC(C)C)C(=O)[C@@]1(C)CO1 [Carfilzomib] + O=C(c1cc(Cc2n[nH]c(=O)c3ccccc23)ccc1F)N1CCN(C(=O)C2CC2)CC1 [Olaparib] (partner 8 µM)
As to the kind of experiment: relative viability (nuclei count vs DMSO), 5 days (fraction); higher = more cells survive. The method in brief: (§1)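 Medians of duplicate plates are given as relative viability. That measure is the nuclei count in treated wells divided by the count in vehicle wells. Counts were taken on 4× images of lung cancer cell lines in 1536-well plates, 5 days after pin-tool dosing the day after seeding with one drug alone or a fixed anchor-drug dose plus five library-drug doses (not always all listed) in √10 steps.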

Compound in the assay “Olaparib + Luminespib”: O=C(c1cc(Cc2n[nH]c(=O)c3ccccc23)ccc1F)N1CCN(C(=O)C2CC2)CC1 [Olaparib] + CCNC(=O)c1noc(-c2cc(C(C)C)c(O)cc2O)c1-c1ccc(CN2CCOCC2)cc1 [Luminespib] (partner 0.01 µM)
The description is as above. Summed up:
as §1

NCI-H1793: the relative viability with Carfilzomib + Olaparib (first compound 0.001 µM) stood at 0.811; with Carfilzomib + Olaparib (first compound 0.003162 µM) it was 1.05; with Carfilzomib + Olaparib (first compound 0.01 µM), 0.924; with Carfilzomib + Olaparib (first compound 0.03162 µM) it was 0.732; in the assay with Carfilzomib + Olaparib (first compound 0.1 µM) it was 0.223; in the assay with Olaparib + Luminespib (first compound 0.08 µM), 0.144. Also, the results for the relative viability in the assay with Olaparib + Luminespib (first compound 0.253 µM), with Olaparib + Luminespib (first compound 2.53 µM) and with Olaparib + Luminespib (first compound 8 µM) were 0.225, 0.138 and 0.149, respectively.
